Assay results as given in patent EP1586565A1, “Substituted polycyclic aryl and heteroaryl pyrazinones useful for selective inhibition of the coagulation cascade” (Pharmacia Corporation, priority 1999, dated 2000).
Values belong to the molecule of their own block, whether it stands above or below them.

Molecular target: T1, Human factor Xa (Homo sapiens, UniProt P00742)
T1 construct: leads from XII to XIIa to XIa to IXa and to the conversion of X to Xa; purchased Enzyme Research Laboratories, South Bend IN
T1 sequence (P00742 235-488 limits assumed): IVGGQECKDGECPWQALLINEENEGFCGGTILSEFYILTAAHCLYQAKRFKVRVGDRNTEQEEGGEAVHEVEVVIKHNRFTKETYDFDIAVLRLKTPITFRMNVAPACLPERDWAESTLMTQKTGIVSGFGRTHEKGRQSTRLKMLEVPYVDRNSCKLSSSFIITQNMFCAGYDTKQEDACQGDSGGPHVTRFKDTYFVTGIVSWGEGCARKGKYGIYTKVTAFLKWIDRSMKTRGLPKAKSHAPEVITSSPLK
T1 sequence (P00742 41-179 limits assumed): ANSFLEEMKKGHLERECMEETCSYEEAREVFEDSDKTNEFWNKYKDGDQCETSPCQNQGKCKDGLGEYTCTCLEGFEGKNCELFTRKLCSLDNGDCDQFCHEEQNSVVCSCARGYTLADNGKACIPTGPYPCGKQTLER
Experiment: Xa Assay
Format: biochemical
Details: % inhibition at 30 µM (cells with % or %@30, bare 0)

SMILES: Cc1c(Cl)nc(NCc2ccccc2)c(=O)n1CC(=O)NCc1ccc(C(=N)N)cc1 [1471-1]
- IC50 or % Inhibition Factor Xa (30 µM): 10%

SMILES: Cc1c(Cl)nc(NCCc2ccc(Cl)cc2)c(=O)n1CC(=O)NCc1ccc(C(=N)N)cc1 [1471-2]
- IC50 or % Inhibition Factor Xa (30 µM): 10%

SMILES: Cc1c(Cl)nc(NCc2ccncc2)c(=O)n1CC(=O)NCc1ccc(C(=N)N)cc1 [1471-3]
- IC50 or % Inhibition Factor Xa (30 µM): 0%

SMILES: Cc1c(Cl)nc(NCCN2CCOCC2)c(=O)n1CC(=O)NCc1ccc(C(=N)N)cc1 [1471-4]
- IC50 or % Inhibition Factor Xa (30 µM): 0%

SMILES: Cc1c(Cl)nc(NCCc2ccncc2)c(=O)n1CC(=O)NCc1ccc(C(=N)N)cc1 [1471-5]
- IC50 or % Inhibition Factor Xa (30 µM): 12%

SMILES: Cc1c(Cl)nc(NCCc2cccc(Cl)c2)c(=O)n1CC(=O)NCc1ccc(C(=N)N)cc1 [1471-6]
- IC50 or % Inhibition Factor Xa (30 µM): 14%

SMILES: Cc1c(Cl)nc(NCCc2ccccc2)c(=O)n1CC(=O)NCc1ccc(C(=N)N)cc1 [1471-7]
- IC50 or % Inhibition Factor Xa (30 µM): 4%

SMILES: Cc1c(Cl)nc(NCCc2cccnc2)c(=O)n1CC(=O)NCc1ccc(C(=N)N)cc1 [1471-8]
- IC50 or % Inhibition Factor Xa (30 µM): 27%

SMILES: N=C(N)c1ccc(CNC(=O)Cn2c(-c3ccccc3)c(Cl)nc(NCc3ccccc3)c2=O)cc1 [1471-9]
- IC50 or % Inhibition Factor Xa (30 µM): 29%

SMILES: N=C(N)c1ccc(CNC(=O)Cn2c(-c3ccccc3)c(Cl)nc(NCCc3ccc(Cl)cc3)c2=O)cc1 [1471-10]
- IC50 or % Inhibition Factor Xa (30 µM): 45%

SMILES: N=C(N)c1ccc(CNC(=O)Cn2c(-c3ccccc3)c(Cl)nc(NCc3ccncc3)c2=O)cc1 [1471-11]
- IC50 or % Inhibition Factor Xa (30 µM): 9%

SMILES: N=C(N)c1ccc(CNC(=O)Cn2c(-c3ccccc3)c(Cl)nc(NCCN3CCOCC3)c2=O)cc1 [1471-12]
- IC50 or % Inhibition Factor Xa (30 µM): 9%

Further lines, results first:

- IC50 or % Inhibition Factor Xa (30 µM): 0%
SMILES: N=C(N)c1ccc(CNC(=O)Cn2c(-c3ccccc3)c(Cl)nc(NCCc3ccncc3)c2=O)cc1 [1471-13]

- IC50 or % Inhibition Factor Xa (30 µM): 23%
SMILES: N=C(N)c1ccc(CNC(=O)Cn2c(-c3ccccc3)c(Cl)nc(NCCc3cccnc3)c2=O)cc1 [1471-16]

- IC50 or % Inhibition Factor Xa (30 µM): 26%
SMILES: N=C(N)c1ccc(CNC(=O)Cn2c(-c3ccc(Cl)cc3)c(Cl)nc(NCCc3ccc(Cl)cc3)c2=O)cc1 [1471-18]

- IC50 or % Inhibition Factor Xa (30 µM): 28%
SMILES: N=C(N)c1ccc(CNC(=O)Cn2c(-c3ccc(Cl)cc3)c(Cl)nc(NCCc3cccc(Cl)c3)c2=O)cc1 [1471-22]

- IC50 or % Inhibition Factor Xa (30 µM): 36%
SMILES: N=C(N)c1ccc(CNC(=O)Cn2c(-c3ccc(Cl)cc3)c(Cl)nc(NCCc3ccccc3)c2=O)cc1 [1471-23]

- IC50 or % Inhibition Factor Xa (30 µM): 31%
SMILES: N=C(N)c1ccc(CNC(=O)Cn2c(-c3cccc(Cl)c3)c(Cl)nc(NCc3ccccc3)c2=O)cc1 [1471-25]

- IC50 or % Inhibition Factor Xa (30 µM): 16%
SMILES: N=C(N)c1ccc(CNC(=O)Cn2c(-c3cccc(Cl)c3)c(Cl)nc(NCc3ccncc3)c2=O)cc1 [1471-27]

- IC50 or % Inhibition Factor Xa (30 µM): 8%
SMILES: N=C(N)c1ccc(CNC(=O)Cn2c(-c3cccc(Cl)c3)c(Cl)nc(NCCN3CCOCC3)c2=O)cc1 [1471-28]

- IC50 or % Inhibition Factor Xa (30 µM): 21%
SMILES: N=C(N)c1ccc(CNC(=O)Cn2c(-c3cccc(Cl)c3)c(Cl)nc(NCCc3ccncc3)c2=O)cc1 [1471-29]

- IC50 or % Inhibition Factor Xa (30 µM): 41%
SMILES: N=C(N)c1ccc(CNC(=O)Cn2c(-c3cccc(Cl)c3)c(Cl)nc(NCCc3cccc(Cl)c3)c2=O)cc1 [1471-30]

- IC50 or % Inhibition Factor Xa (30 µM): 17%
SMILES: N=C(N)c1ccc(CNC(=O)Cn2c(-c3cccc(Cl)c3)c(Cl)nc(NCCc3ccccc3)c2=O)cc1 [1471-31]

- IC50 or % Inhibition Factor Xa (30 µM): 25%
SMILES: N=C(N)c1ccc(CNC(=O)Cn2c(-c3cccc(Cl)c3)c(Cl)nc(NCCc3cccnc3)c2=O)cc1 [1471-32]

- IC50 or % Inhibition Factor Xa (30 µM): 24%
SMILES: COc1ccc(-c2c(Cl)nc(NCCc3ccc(Cl)cc3)c(=O)n2CC(=O)NCc2ccc(C(=N)N)cc2)cc1 [1471-34]

- IC50 or % Inhibition Factor Xa (30 µM): 34%
SMILES: N=C(N)c1ccc(CNC(=O)Cn2c(-c3ccc4c(c3)OCO4)c(Cl)nc(NCc3ccccc3)c2=O)cc1 [1471-41]

- IC50 or % Inhibition Factor Xa (30 µM): 15%
SMILES: N=C(N)c1ccc(CNC(=O)Cn2c(-c3ccc4c(c3)OCO4)c(Cl)nc(NCCc3ccc(Cl)cc3)c2=O)cc1 [1471-42]
